Data published in US8653276B2 (SANOFI, priority 2008, dated 2014).
Structures can show the parent of a compound that is named as a salt.

target: T1, human GPR14 receptor (Homo sapiens, UniProt Q9UKP6); test: cell-based
T1 sequence (Q9UKP6 1-389): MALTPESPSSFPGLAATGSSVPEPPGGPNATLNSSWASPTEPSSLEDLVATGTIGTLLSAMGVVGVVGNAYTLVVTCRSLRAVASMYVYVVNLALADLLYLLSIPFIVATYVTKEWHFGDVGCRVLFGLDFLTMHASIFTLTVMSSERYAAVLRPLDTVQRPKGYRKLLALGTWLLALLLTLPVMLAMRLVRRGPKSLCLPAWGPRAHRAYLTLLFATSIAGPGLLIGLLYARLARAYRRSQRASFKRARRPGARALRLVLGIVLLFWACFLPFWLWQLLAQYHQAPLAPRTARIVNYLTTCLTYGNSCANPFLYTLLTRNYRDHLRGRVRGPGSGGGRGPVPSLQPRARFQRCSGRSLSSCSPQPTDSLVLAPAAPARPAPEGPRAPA
Experimental: GPR14 is a 7-domain transmembrane receptor coupled to Gq. Its activation with a specific ligand causes an increase in Ca^2+ in the cell via the PLC (phospholipase C), IP3 (inositol-1,4,5-triphosphate) DAG (diacylglycerol) route.
The increase in Ca^2+ in the cell is measured using a Fluo4AM permeating probe (monoexcitation, monoemission probe) which binds to the free Ca^2+ and emits at 520 nm. The free probe is nonfluorescent in the absence of Ca^2+.
Experiment Plan • 1) Seeding of the cells on D-1 (day-1) or D-2 • 2) Incorporation/charge (D0) of the probe (1 h) • 3) Addition of the products to the FlipR and measurement • 4) Addition of the ligand to the FlipR and measurement in the presence of the products • 5) Processing and exportation of the data
The cells are cultured in whole medium in a T225 flask. For the experiments, the cells are subcultured in 200 μl of culture medium in transparent-bottomed black 96-well plates at a rate of 60 000 cells/well for a use on D+1 or 40 000 cells/well for a use on D+2.
Fluo-4AM is prepared at 20 mM and then divided into aliquots (50 μl) and stored at −20° C. sheltered from light. A solution of pluronic acid at 200 mg/ml in DMSO is also prepared (it keeps for one week at room temperature sheltered from light).
The cells are charged with the mixture of Fluo-4AM+pluronic acid (aliquots of 50 μl+50 μl of pluronic acid) diluted to 1/100 in the measuring buffer.
After washing the wells with 150 μl of measuring buffer (cf. appendix), the cells are then charged in the following manner: • distribution of 100 μl of measuring buffer into each well • addition of 10 μl of the Fluo-4AM+pluronic acid mixture diluted to 1/100.
The cells are incubated for 1 hour at 37° C. sheltered from light, in an incubator in the presence of 5% CO2.
The cells are then washed 3 times with 150 μl of measuring buffer to remove the excess probe. A volume of 150 μl of buffer is added to each well at the end of washing.
After incubating the plates for 20 minutes at room temperature sheltered from light, they are placed in the FlipR for the fluorescence measurement.
The basic level of incorporation of the Fluo-4 is checked for each plate (sd<10%) before the first injection.
After stabilizing the base signal, the GPR14 inhibitor compounds are injected via the FlipR in a volume of 50 μl using a dilution plate prepared with Biomek 2000 as measuring buffer.
The data are recorded continuously throughout the experiment.
For each plate, the base fluorescence before injection of the compounds is normalized via the “spatial uniformity correction” function of the FlipR. […] In each plate, a series of wells is treated with urotensin alone in the absence of inhibitor compound.
The percentage of inhibition for each concentration of product is calculated as described below: Inhibition(%)=100×(delta Uro II−delta product)/delta Uro II

Structure (SMILES) | IC50
COC(=O)C1(NC(=O)c2ccc(-c3ncc(Cl)cc3Cl)c(-c3ccc(Cl)c(OCCCN(C)C)c3)n2)CCCCC1 [Compound 1, methyl 1-{[(3,5-dichloro-2′-{4-chloro-3-[3-(dimethylamino)propoxy]phenyl}-2,3′-bipyridin-6′-yl)carbonyl]amino}cyclohexanecarboxylate] | 1600 nM
COC(=O)C1(NC(=O)c2ccc(-c3ncc(C)cc3Cl)c(-c3ccc(Cl)c(OCCCN(C)C)c3)n2)CCCCC1 [Compound 5, methyl 1-{[(3-chloro-2′-{4-chloro-3-[3-(dimethylamino)propoxy]phenyl}-5-methyl-2,3′-bipyridin-6′-yl)carbonyl]amino}cyclohexanecarboxylate] | 540 nM
CCCOc1ccc(Cl)c(-c2ccc(C(=O)NC3(C(=O)OC)CCCCC3)nc2-c2ccc(Cl)c(OCCCN(C)C)c2)c1 [Compound 9, methyl 1-({[6-{4-chloro-3-[3-(dimethylamino)propoxy]phenyl}-5-(2-chloro-5-propoxyphenyl)pyridin-2-yl]carbonyl}amino)cyclohexanecarboxylate] | 1400 nM
COC(=O)C1(NC(=O)c2ccc(-n3nc(C)cc3C)c(-c3ccc(Cl)c(OCCCN(C)C)c3)n2)CCCCC1 [Compound 18, methyl 1-({[6-{4-chloro-3-[3-(dimethylamino)propoxy]phenyl}-5-(3,5-dimethyl-1H-pyrazol-1-yl)pyridin-2-yl]carbonyl}amino)cyclohexanecarboxylate] | 1080 nM
COC(=O)C1(NC(=O)c2cnc(-c3ccc(C)cc3C)c(-c3ccc(Cl)c(OCCCN(C)C)c3)n2)CCCCC1 [Compound 20, methyl 1-({[6-{4-chloro-3-[3-(dimethylamino)propoxy]phenyl}-5-(2,4-dimethylphenyl)pyrazin-2-yl]carbonyl}amino)cyclohexanecarboxylate] | 116 nM
CCOc1ccc(Cl)c(-c2ncc(C(=O)N[C@@H](CC(=O)OC)C(C)(C)C)nc2-c2ccc(Cl)c(OCCCN(C)C)c2)c1 [Compound 24, methyl(3S)-3-({[6-{4-chloro-3-[3-(dimethylamino)propoxy]phenyl}-5-(2-chloro-5-ethoxyphenyl)pyrazin-2-yl]carbonyl}amino)-4,4-dimethylpentanoate] | 102 nM
COC(=O)C1(NC(=O)c2ccc(-c3ccccc3Cl)c(-c3ccc(Cl)c(OCCCN(C)C)c3)n2)C2CC3CC(C2)CC1C3 (stereo not shown) [Compound 26, methyl 2-({[6-{4-chloro-3-[3-(dimethylamino)propoxy]phenyl}-5-(2-chlorophenyl)pyridin-2-yl]carbonyl}amino)adamantane-2-carboxylate] | 170 nM
CCOC(=O)C[C@H](NC(=O)c1ccc(-c2ccccc2C)c(-c2ccc(Cl)c(OCCCN(C)C)c2)n1)C(C)(C)C [Compound 29, ethyl(3S)-3-({[6-{4-chloro-3-[3-(dimethylamino)propoxy]phenyl}-5-(2-methylphenyl)pyridin-2-yl]carbonyl}amino)-4,4-dimethylpentanoate] | 253 nM
CNC(=O)C[C@H](NC(=O)c1ccc(-c2ccccc2C)c(-c2ccc(Cl)c(OCCCN(C)C)c2)n1)C(C)(C)C [Compound 33, 6-{4-chloro-3-[3-(dimethylamino)propoxy]phenyl}-N-{(1S)-2,2-dimethyl-1-[2-(methylamino)-2-oxoethyl]propyl}-5-(2-methylphenyl)pyridine-2-carboxamide] | 450 nM
COC(=O)[C@]1(NC(=O)c2ccc(-c3ccccc3C)c(-c3ccc(Cl)c(OCCCN(C)C)c3)n2)CC[C@@H](O)CC1 [Compound 42, methyl cis-1-({[6-{4-chloro-3-[3-(dimethylamino)propoxy]phenyl}-5-(2-methylphenyl)pyridin-2-yl]carbonyl}amino)-4-hydroxycyclohexanecarboxylate] | 95 nM
COC(=O)[C@]1(NC(=O)c2ccc(-c3ncc(C)cc3Cl)c(-c3ccc(Cl)c(OCCCN(C)C)c3)n2)CC[C@@H](O)CC1 [Compound 44, methyl cis-1-{[(3-chloro-2′-{4-chloro-3-[3-(dimethylamino)propoxy]phenyl}-5-methyl-2,3′-bipyridin-6′-yl)carbonyl]amino}-4-hydroxycyclohexanecarboxylate] | 660 nM

The remaining lines, values ahead:

IC50 | Structure (SMILES)
1700 nM | COC(=O)C1(NC(=O)c2ccc(-c3ccc(O)cc3C)c(-c3ccc(Cl)c(OCCCN(C)C)c3)n2)CCCCC1 [Compound 2, methyl 1-({[6-{4-chloro-3-[3-(dimethylamino)propoxy]phenyl}-5-(4-hydroxy-2-methylphenyl)pyridin-2-yl]carbonyl}amino)cyclohexanecarboxylate]
630 nM | COC(=O)C1(NC(=O)c2ccc(-c3ccccc3C)c(-c3ccc(Cl)c(OCCCN(C)C)c3)n2)CCCCC1 [Compound 4, methyl 1-({[6-{4-chloro-3-[3-(dimethylamino)propoxy]phenyl}-5-(2-methylphenyl)pyridin-2-yl]carbonyl}amino)cyclohexanecarboxylate]
330 nM | COC(=O)C1(NC(=O)c2ccc(-c3cc(C4CC4)ccc3C)c(-c3ccc(Cl)c(OCCCN(C)C)c3)n2)CCCCC1 [Compound 7, methyl 1-({[6-{4-chloro-3-[3-(dimethylamino)propoxy]phenyl}-5-(5-cyclopropyl-2-methylphenyl)pyridin-2-yl]carbonyl}amino)cyclohexanecarboxylate]
566 nM | COC(=O)C1(NC(=O)c2ccc(-c3cc4c(cc3C)OCO4)c(-c3ccc(Cl)c(OCCCN(C)C)c3)n2)CCCCC1 [Compound 11, methyl 1-({[6-{4-chloro-3-[3-(dimethylamino)propoxy]phenyl}-5-(6-methyl-1,3-benzodioxol-5-yl)pyridin-2-yl]carbonyl}amino)cyclohexanecarboxylate]
846 nM | COC(=O)C1(NC(=O)c2ccc(-c3ncc(C)cc3C)c(-c3ccc(Cl)c(OCCCN(C)C)c3)n2)CCCCC1 [Compound 13, methyl 1-{[(2′-{4-chloro-3-[3-(dimethylamino)propoxy]phenyl}-3,5-dimethyl-2,3′-bipyridin-6′-yl)carbonyl]amino}cyclohexanecarboxylate]

test system: not given; test: not given

Structure (SMILES) | melting point
Cc1ccccc1-c1ccc(C(=O)N[C@@H](CCO)C(C)(C)C)nc1-c1ccc(Cl)c(OCCCN(C)C)c1 (as salt: hydrochloride) | 93 °C
COC(=O)C1(NC(=O)c2ccc(-c3ncc(Cl)cc3Cl)c(-c3ccc(Cl)c(OCCCN(C)C)c3)n2)CCCCC1 (as salt: hydrochloride) [Compound 1, methyl 1-{[(3,5-dichloro-2′-{4-chloro-3-[3-(dimethylamino)propoxy]phenyl}-2,3′-bipyridin-6′-yl)carbonyl]amino}cyclohexanecarboxylate] | 168 °C
CCCOc1ccc(Cl)c(-c2ccc(C(=O)NC3(C(=O)OC)CCCCC3)nc2-c2ccc(Cl)c(OCCCN(C)C)c2)c1 (as salt: hydrochloride) [Compound 9, methyl 1-({[6-{4-chloro-3-[3-(dimethylamino)propoxy]phenyl}-5-(2-chloro-5-propoxyphenyl)pyridin-2-yl]carbonyl}amino)cyclohexanecarboxylate] | 117 °C

The remaining lines, values ahead:

melting point | Structure (SMILES)
270 °C | COC(=O)C1(NC(=O)c2ccc(-c3ccc(O)cc3C)c(-c3ccc(Cl)c(OCCCN(C)C)c3)n2)CCCCC1 (as salt: hydrochloride) [Compound 2, methyl 1-({[6-{4-chloro-3-[3-(dimethylamino)propoxy]phenyl}-5-(4-hydroxy-2-methylphenyl)pyridin-2-yl]carbonyl}amino)cyclohexanecarboxylate]
115 °C | COC(=O)C1(NC(=O)c2ccc(-c3ccccc3C)c(-c3ccc(Cl)c(OCCCN(C)C)c3)n2)CCCCC1 (as salt: hydrochloride) [Compound 4, methyl 1-({[6-{4-chloro-3-[3-(dimethylamino)propoxy]phenyl}-5-(2-methylphenyl)pyridin-2-yl]carbonyl}amino)cyclohexanecarboxylate]
152 °C | COC(=O)C1(NC(=O)c2ccc(-c3ncc(C)cc3Cl)c(-c3ccc(Cl)c(OCCCN(C)C)c3)n2)CCCCC1 (as salt: hydrochloride) [Compound 5, methyl 1-{[(3-chloro-2′-{4-chloro-3-[3-(dimethylamino)propoxy]phenyl}-5-methyl-2,3′-bipyridin-6′-yl)carbonyl]amino}cyclohexanecarboxylate]
114 °C | COC(=O)C1(NC(=O)c2ccc(-c3cc(C4CC4)ccc3C)c(-c3ccc(Cl)c(OCCCN(C)C)c3)n2)CCCCC1 (as salt: hydrochloride) [Compound 7, methyl 1-({[6-{4-chloro-3-[3-(dimethylamino)propoxy]phenyl}-5-(5-cyclopropyl-2-methylphenyl)pyridin-2-yl]carbonyl}amino)cyclohexanecarboxylate]
138 °C | COC(=O)C1(NC(=O)c2ccc(-c3cc4c(cc3C)OCO4)c(-c3ccc(Cl)c(OCCCN(C)C)c3)n2)CCCCC1 (as salt: hydrochloride) [Compound 11, methyl 1-({[6-{4-chloro-3-[3-(dimethylamino)propoxy]phenyl}-5-(6-methyl-1,3-benzodioxol-5-yl)pyridin-2-yl]carbonyl}amino)cyclohexanecarboxylate]
176 °C | COC(=O)C1(NC(=O)c2ccc(-c3ncc(C)cc3C)c(-c3ccc(Cl)c(OCCCN(C)C)c3)n2)CCCCC1 (as salt: hydrochloride) [Compound 13, methyl 1-{[(2′-{4-chloro-3-[3-(dimethylamino)propoxy]phenyl}-3,5-dimethyl-2,3′-bipyridin-6′-yl)carbonyl]amino}cyclohexanecarboxylate]
